Data: the supplement of paper PMC10307832

Legend:
Experiment in all cases: relative viability (nuclei count vs DMSO), 5 days (fraction); higher = more cells survive
[1] = compound: CC1=CC=C(C=C1)C(=O)CN2C3=C(CCCC3)SC2=N [Pifithrin_alpha] + COc1cccc2cc(-c3nc([C@H]4CC[C@H](C(=O)O)CC4)n4ncnc(N)c34)[nH]c12 [OSI-027] (partner 0.5 µM)
Summary of the method: (§1)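 Lung cancer cell lines, seeded in 1536-well plates, were treated the following day by pin tool with a single drug or with five library-drug doses (not always all listed) in √10 steps on top of a fixed anchor-drug dose. Cells were fixed and nuclei stained in one step after 5 days, and nuclei were counted. Relative viability is the nuclei count for treated wells divided by that for vehicle wells, reported as medians of duplicate plates.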

[2] = compound: CC1=CC=C(C=C1)C(=O)CN2C3=C(CCCC3)SC2=N [Pifithrin_alpha] + Nc1nc2[nH]cc(CCc3ccc(C(=O)N[C@@H](CCC(=O)O)C(=O)O)cc3)c2c(=O)[nH]1 [Pemetrexed] (partner 0.2 µM)
Summary of the method: as §1

Axitinib + Pictilisib = compound: CNC(=O)c1ccccc1Sc1ccc2c(/C=C/c3ccccn3)n[nH]c2c1 [Axitinib] + CS(=O)(=O)N1CCN(Cc2cc3nc(-c4cccc5[nH]ncc45)nc(N4CCOCC4)c3s2)CC1 [Pictilisib] (partner 1 µM)
Summary of the method: as §1

[3] = compound: CC1=CC=C(C=C1)C(=O)CN2C3=C(CCCC3)SC2=N [Pifithrin_alpha] + O=C(CCCCCCC(=O)Nc1ccccc1)NO [Vorinostat] (partner 1 µM)
Summary of the method: as §1

Cell Line	relative viability ([1]; first compound 1 µM)	relative viability ([1]; first compound 3.162 µM)	relative viability ([1]; first compound 10 µM)	relative viability ([1]; first compound 31.62 µM)	relative viability ([1]; first compound 100 µM)	relative viability ([2]; first compound 1 µM)	relative viability ([2]; first compound 3.162 µM)	relative viability ([2]; first compound 10 µM)	relative viability ([2]; first compound 31.62 µM)	relative viability ([2]; first compound 100 µM)	relative viability (Axitinib + Pictilisib; first compound 0.005 µM)	relative viability (Axitinib + Pictilisib; first compound 0.01581 µM)	relative viability (Axitinib + Pictilisib; first compound 0.05 µM)	relative viability (Axitinib + Pictilisib; first compound 0.1581 µM)	relative viability (Axitinib + Pictilisib; first compound 0.5 µM)	relative viability ([3]; first compound 1 µM)	relative viability ([3]; first compound 3.162 µM)	relative viability ([3]; first compound 10 µM)	relative viability ([3]; first compound 31.62 µM)	relative viability ([3]; first compound 100 µM)
201T	0.453	0.542	0.524	0.439	0.467	0.315	0.337	0.296	0.29	0.295	0.671	0.69	0.662	0.675	0.675	0.529	0.948	0.757	0.666	0.711
A549											0.482	0.587	0.48	0.461	0.601					
A-427	0.398	0.416	0.445	0.445	0.601	0.827	1	0.87	0.759	0.905	0.672	0.496	0.77	0.705	0.679	0.827	0.83	0.807	0.762	0.728
ABC-1	0.358	0.526	0.35	0.299	0.326						0.716	0.773	0.812	0.658	0.834		1.25	0.844	0.622	0.765
BEN	0.294	0.278	0.306	0.286	0.266	0.523	0.741	0.741	0.746	0.629	0.547	0.536	0.533	0.516	0.515	0.448	0.564	0.617	0.555	0.571
CAL-12T	0.455	0.592	0.457		0.444	1.31	1.29	1.1		1.19	0.385	0.393	0.513	0.492	0.396	0.699	0.73	0.706		0.651
COR-L23	0.843	0.822	0.616		0.613	0.19	0.201	0.196		0.181	0.838	0.779	0.832	0.731	0.944	0.42	0.349	0.361		0.344
COR-L 105	0.6	0.667	0.591	0.64	0.495	1.13	1	0.951	0.926	1.03	0.42	0.411	0.379	0.382	0.385	0.844	0.665	0.699	0.608	0.633
Calu-6											0.861	0.946	1	0.942	1.17					
ChaGo-K-1	0.374	0.479	0.53	0.321	0.482	0.251	0.252	0.27	0.263	0.249	0.725	0.562	0.878	0.643	0.541	0.574	0.836	0.788	0.524	0.771
EBC-1											0.492	0.485	0.459	0.41	0.567					
EKVX	0.668		0.569	0.734	0.604	0.514	0.352	0.37	0.266	0.316	0.441	0.429	0.481	0.48	0.399		0.597	0.549	0.636	0.572
EMC-BAC-2	0.329	0.386	0.358		0.353	0.443	0.435	0.416	0.383	0.418	0.569	0.533	0.534	0.555	0.529		0.413		0.328	0.413
EPLC-272H	0.227	0.307	0.245	0.244	0.256	0.444	0.3	0.249	0.295	0.382	0.317	0.289	0.391	0.272	0.313	0.472	0.419	0.244	0.177	0.27
H3255	0.552	0.608	0.504	0.521	0.572	0.507	0.533	0.537	0.532	0.505	0.485	0.288	0.432	0.492	0.435	0.682	0.818	0.788	0.497	0.703
HARA		0.482	0.58		0.441	0.234	0.232	0.266	0.248	0.23	0.324	0.401	0.545	0.364	0.281		0.558	0.674	0.468	0.513
HCC-15	0.503	0.61	0.611	0.376	0.485	0.225	0.206	0.207	0.206	0.209	0.696	0.828	0.761	0.736	0.737	0.871	0.833	0.8	0.676	0.646
HCC-44	0.39	0.391	0.481	0.324	0.268	0.56	0.584	0.667	0.519	0.574	0.56	0.734	0.682	0.695	0.546	1.04	0.924	0.91	0.834	0.902
HCC-78	0.349	0.388	0.34	0.326	0.349		0.937	0.941	0.901	0.944	0.207	0.257	0.238	0.229	0.218		0.506	0.519	0.407	0.467
HCC-366	0.787	0.605	0.538		0.48	0.158	0.154	0.139		0.133	0.116	0.171	0.146	0.153	0.101	0.252	0.204	0.171		0.209
HCC-827	0.807	0.912	0.823	0.713	0.774	0.251	0.256	0.27	0.239	0.205	0.911	1.04	0.947	1.08	0.889	0.156	0.894	0.765	0.709	0.787

Cell Line	relative viability ([1]; first compound 1 µM)	relative viability ([1]; first compound 3.162 µM)	relative viability ([1]; first compound 10 µM)	relative viability ([1]; first compound 31.62 µM)	relative viability ([1]; first compound 100 µM)	relative viability ([2]; first compound 1 µM)	relative viability ([2]; first compound 3.162 µM)	relative viability ([2]; first compound 10 µM)	relative viability ([2]; first compound 31.62 µM)	relative viability ([2]; first compound 100 µM)	relative viability (Axitinib + Pictilisib; first compound 0.005 µM)	relative viability (Axitinib + Pictilisib; first compound 0.01581 µM)	relative viability (Axitinib + Pictilisib; first compound 0.05 µM)	relative viability (Axitinib + Pictilisib; first compound 0.1581 µM)	relative viability (Axitinib + Pictilisib; first compound 0.5 µM)	relative viability ([3]; first compound 1 µM)	relative viability ([3]; first compound 3.162 µM)	relative viability ([3]; first compound 10 µM)	relative viability ([3]; first compound 31.62 µM)	relative viability ([3]; first compound 100 µM)
HOP-62	0.836	0.811	0.955	0.635	0.921	0.209	0.4	0.38	0.304	0.441	0.679	0.861	0.735	0.792	0.583	0.436	0.603	0.645	0.375	0.658
IA-LM											0.442	0.307	0.331	0.396	0.4		1.16		0.913	0.907
LC-2-ad		0.84	0.797		0.675	0.307	0.256	0.293	0.263	0.251	0.505	0.516	0.458	0.54	0.469	0.692	0.719	0.689	0.465	0.521
LCLC-97TM1	0.706	0.689	0.631	0.252	0.6		0.184	0.183		0.15	0.145	0.229	0.206	0.247	0.172		0.857	0.852		0.726
LCLC-103H	0.521	0.504	0.437	0.411	0.531	0.46	0.433	0.436	0.458	0.493	0.644	0.512	0.664	0.569	0.587	0.565	0.884	0.782	0.733	0.761
LK-2	0.192	0.213	0.185	0.17	0.169	0.188	0.288	0.244		0.327	0.556	0.434	0.512	0.506	0.486	0.29	0.257	0.255	0.256	0.353
LOU-NH91	0.592	0.692	0.703	0.655	0.595	0.398	0.362	0.307	0.332	0.359	0.528	0.529	0.557	0.544	0.52	0.8	0.868	0.821	0.597	0.739
LU99A	0.266	0.27	0.273	0.23	0.281	0.183	0.243	0.19		0.172	0.355	0.349	0.336	0.363	0.306	0.491	0.646	0.373		0.463
LXF-289	0.53	0.766	0.737	0.68	0.729	0.908	0.985	0.921	0.767	0.943	0.823	0.732	0.833	0.765	0.742	0.718	0.805	0.79	0.662	0.782
NCI-H23	0.627	0.535	0.446		0.535	0.679	0.609	0.734	0.479	0.547	0.535	0.574	0.505	0.477	0.508	0.457	0.4	0.604	0.343	0.584
NCI-H522	0.439	0.624	0.668	0.761	0.777	0.805	0.978	1.02	0.796	1.05						0.777	0.992	0.993	0.759	0.919
NCI-H727	0.394	0.577	0.579		0.404						0.486	0.426	0.485	0.397	0.492	0.461	1.18	1.14	0.777	1.35
NCI-H1299											0.765	0.997	0.75	0.856	1.1					
NCI-H1563	0.776	0.81	0.76	0.704	0.716	0.54	0.813	0.817	0.769	0.749	0.645	0.599	0.647	0.681	0.659					
NCI-H1623	0.401	0.5	0.38	0.331	0.324															
NCI-H1648	0.226	0.277	0.234	0.235	0.252	0.805	0.49	0.924	0.655	0.671						0.523	0.473	0.378	0.347	0.421
NCI-H1703											0.228	0.216	0.254	0.231	0.2					
NCI-H1792		0.668	0.538	0.391	0.458	1.12	0.649	0.675		0.585	0.311	0.251	0.213	0.275	0.271					
NCI-H2342	0.517	0.667	0.551	0.604	0.573	0.628	0.741	0.729	0.855	0.782						0.746	0.632	0.769	0.815	0.741
SW 900	0.399	0.648	0.502	0.342	0.357	0.493	0.509	0.499	0.503	0.371						0.527	0.277	0.432	0.36	0.377
